# Measurements: patent US20240034785A1, “RXR-ALPHA BINDERS AND RXR-ALPHA/PLK1 MODULATORS” (NUCMITO PHARMACEUTICALS CO. LTD., priority 2020, published 2024)
# Legend:
# [1] = tested on: QSG-7701 cells; test: Western blot analysis of QSG-7701 normal liver cells; assay type: cell-based, human; conditions: 12 hr (FIG. 61)
# [2] = tested on: primary mouse liver tumor cells; test: Western blot analysis of primary mouse liver tumor cells; assay type: cell-based; conditions: 10 μM for 24 hr (FIG. 65)
# Method: Briefly, a liver from a mouse was removed and washed in 1×PBS. The tumor tissue was resected from the liver and transferred to 5 mL PBS/2% FBS. The tumor tissue was minced with fine sterile scissors into fragments, followed by addition of 5 mL pre-warmed 2 mg/mL collagenase type IV/dispase. After incubated for 30 min at 37° C., the tumor cells were filtered through a 70 μm cell strainer and spined at 1,000 rpm for 5 min at 4° C. The pellet containing the liver tumor cells was then resuspended in 5 mL of 1×RBC lysis buffer and incubated on ice for 5 min. The tumor cells were spined and washed by 1×PBS/2% FBS for 2-3 times. Finally, the tumor cells were resuspended with DMEM (10% FBS, 40 ng/mL EGF, 0.008 ng/mL IGF-II) and plated in culture dishes that were pre-coated with collagen.
# [3] = tested on: cancer cells; test: Mitotic progression of cancer cells (FACS analysis); assay type: cell-based; parameters: inhibitory effect on mitotic progression: RXRα dependence and other cancer cell lines (FACS): dose or concentration left out as unconfirmed
# Method: Cells were harvested by trypsin digestion, washed with PBS, and fixed with ice-cold 70% ethanol overnight at 4° C. The fixed cells were then washed twice in PBS and treated for 10 min at room temperature with 0.5 μg/mL 4-6-diamidino-2-phenylindole (DAPI) in PBS and analyzed on a FACSCAN™ flow cytometer. Flow cytometry data were analyzed using CYTEXPERT.
# [4] = target: T1, RXRα heterodimerization with RARγ (Homo sapiens, UniProt P19793); test: Co-immunoprecipitation of Myc-RXRα with FLAG-RARγ in HeLa cells; assay type: cell-based; conditions: 10 μM for 3 hr (FIG. 55)
# T1 construct: expressed in transfected cells; host or cells: HeLa
# T1 sequence (P19793 1-462): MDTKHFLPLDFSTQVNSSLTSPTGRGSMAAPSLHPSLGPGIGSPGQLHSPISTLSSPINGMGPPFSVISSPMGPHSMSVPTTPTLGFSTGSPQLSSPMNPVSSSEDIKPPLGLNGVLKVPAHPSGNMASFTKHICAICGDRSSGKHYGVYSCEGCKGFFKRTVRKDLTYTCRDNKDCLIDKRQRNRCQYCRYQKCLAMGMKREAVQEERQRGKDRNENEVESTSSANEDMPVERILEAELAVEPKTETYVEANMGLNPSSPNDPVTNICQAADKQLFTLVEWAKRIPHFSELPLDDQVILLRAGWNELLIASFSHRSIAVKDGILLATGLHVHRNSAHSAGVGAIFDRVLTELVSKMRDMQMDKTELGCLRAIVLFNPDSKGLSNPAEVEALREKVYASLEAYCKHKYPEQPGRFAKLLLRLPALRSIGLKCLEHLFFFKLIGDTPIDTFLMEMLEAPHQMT
# T1 sequence (P13631 1-454 partner): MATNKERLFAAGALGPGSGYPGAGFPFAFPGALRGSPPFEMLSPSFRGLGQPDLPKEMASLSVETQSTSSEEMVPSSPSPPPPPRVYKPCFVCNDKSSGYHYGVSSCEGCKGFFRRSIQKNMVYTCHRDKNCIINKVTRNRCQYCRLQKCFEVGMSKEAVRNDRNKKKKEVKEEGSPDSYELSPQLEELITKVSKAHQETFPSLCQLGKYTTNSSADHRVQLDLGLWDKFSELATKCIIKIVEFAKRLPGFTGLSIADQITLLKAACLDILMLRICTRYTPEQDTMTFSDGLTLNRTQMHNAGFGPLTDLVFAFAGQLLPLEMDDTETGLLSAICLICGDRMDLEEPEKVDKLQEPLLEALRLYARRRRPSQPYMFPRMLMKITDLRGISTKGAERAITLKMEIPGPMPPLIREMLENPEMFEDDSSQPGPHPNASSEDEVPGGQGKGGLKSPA
# [5] = tested on: HepG2 cells; test: Centrosome immunofluorescence in metaphase HepG2 cells; assay type: cell-based, human
# Method: Cells mounted on glass slides were fixed with methanol at −20° C. for 10 min, then permeabilized with 0.05% Triton X-100 in a PBS buffer for 8 min at 4° C., and blocked with 1% bovine serum in PBS for 30 min at room temperature, followed by incubation with primary antibodies at room temperature for 3 hr and detected by FITC-labeled anti-IgG (1:200), anti-goat IgG conjugated with Cy3 (1:200) at room temperature for 1 hr. The cells were costained with 40,6-diamidino-2-phenylindole (DAPI) (1:10,000 dilution) to visualize nuclei. The images were taken under a LEICA TCS SP8 confocal laser scanning microscope system or an LSM-510 confocal laser scanning microscope system.
structure (smiles),measurement,setting,value
"COc1ccc(CC(=O)N/N=C/c2c(O)ccc3ccccc23)cc1 [Compound A1, (E)-N′-((2-hydroxynaphthalen-1-yl)methylene)-2-(4-methoxyphenyl)acetohydrazide]",effect in p-RXRα-negative noncancerous QSG-7701 cells,[1],but not p-RXRα-negative noncancerous QSG-7701 cells
same,"G2/M arrest, DNA damage response, and apoptosis",[2]; primary liver cancer cells,"induced G2/M arrest, DNA damage response, and apoptosis"
same,induction of mitotic arrest and apoptosis,[2]; primary mouse liver tumor cells,observed
same,mitotic progression of cancer cells,[3],inhibited mitotic progression of cancer cells
same,inhibitory effect on mitotic progression: RXRα dependence and other cancer cell lines (FACS),[3]; indicated cell lines,RXRα dependent and observed in many other cancer cell lines
same,RXRα heterodimerization with RARγ (CoIP),[4],no effect
same,centrosomal aberrations,[5],caused centrosomal aberrations
same,level of PLK1-pT210 at the centrosome,"[5]; HepG2 cells, 10 μM for 2 hr after release from TT block for 10 hr (FIG. 57)",reduced the level of PLK1-pT210
same,centrosome maturation (γ-tubulin at the centrosomes),"[5]; HepG2 cells, 10 μM for 2 hr after release from TT block for 10 hr (FIG. 58)",suppressed centrosome maturation
